Legend:
A2AAR = settings: read-out: A2AAR Ki; cited from earlier work
MAO-B = settings: read-out: MAO-B IC50; cited from earlier work
human recombinant MAO-B = molecular target: T1, human recombinant MAO-B (Homo sapiens, UniProt P27338); test: MAO-B enzyme assay; type: biochemical; settings: Triton X-100, 0.01%; colloidal aggregation control
T1 sequence (P27338 1-520): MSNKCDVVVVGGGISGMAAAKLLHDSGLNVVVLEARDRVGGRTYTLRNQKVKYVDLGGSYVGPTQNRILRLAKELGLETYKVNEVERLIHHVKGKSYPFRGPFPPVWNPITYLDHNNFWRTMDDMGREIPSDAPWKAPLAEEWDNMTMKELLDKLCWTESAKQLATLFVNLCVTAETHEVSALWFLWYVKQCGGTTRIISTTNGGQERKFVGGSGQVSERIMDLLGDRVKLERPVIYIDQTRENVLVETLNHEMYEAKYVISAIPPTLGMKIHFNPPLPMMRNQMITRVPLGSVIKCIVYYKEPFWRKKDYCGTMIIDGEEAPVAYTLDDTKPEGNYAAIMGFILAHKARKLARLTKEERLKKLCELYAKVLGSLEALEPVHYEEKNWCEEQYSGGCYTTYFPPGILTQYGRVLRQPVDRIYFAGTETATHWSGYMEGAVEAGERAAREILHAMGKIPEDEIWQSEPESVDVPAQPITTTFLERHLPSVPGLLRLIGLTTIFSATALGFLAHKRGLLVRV

human A2A receptors = human A2A receptors (Homo sapiens, UniProt P29274); test: Functional cAMP accumulation assay with NECA; type: cell-based; settings: response to agonist NECA in presence of compound; CHO cells
[1] = molecular target: A2A adenosine receptor (A2AAR) (Homo sapiens, UniProt P29274); test: A2AAR competition binding; settings: for better A2AAR binding affinity than compound 1: relative to compound 1
[2] = system: differentiated dopaminergic neuronal-like SH-SY5Y cells; test: Cell viability; type: cell-based, human; settings: 20 µM 6-OHDA, 24 h; resazurin

Sequence of A2A adenosine receptor (A2AAR) (P29274 whole entry): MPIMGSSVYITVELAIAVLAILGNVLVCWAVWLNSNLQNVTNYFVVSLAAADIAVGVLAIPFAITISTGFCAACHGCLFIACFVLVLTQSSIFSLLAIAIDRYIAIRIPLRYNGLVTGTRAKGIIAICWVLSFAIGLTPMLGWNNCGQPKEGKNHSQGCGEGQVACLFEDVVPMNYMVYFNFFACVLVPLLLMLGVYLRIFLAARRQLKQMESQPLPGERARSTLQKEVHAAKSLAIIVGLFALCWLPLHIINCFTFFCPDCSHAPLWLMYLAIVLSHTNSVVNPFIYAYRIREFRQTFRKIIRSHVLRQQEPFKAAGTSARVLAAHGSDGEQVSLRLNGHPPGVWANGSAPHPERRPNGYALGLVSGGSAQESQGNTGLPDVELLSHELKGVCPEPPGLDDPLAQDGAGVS
Sequence of human A2A receptors (P29274 whole entry): as above

Cn1c(=O)c2c(nc(/C=C/c3cccc(Cl)c3)n2C)n(C)c1=O [CSC, 8-(3-chlorostyryl)caffeine]
Ki (A2AAR): 0.038 µM | IC50 (MAO-B): 0.018 µM

O=C(Nc1nc2ccccc2[nH]1)c1ccccc1 [Compound 1]
change in MAO-B IC50 values in the presence of detergent (human recombinant MAO-B): no significant changes

O=C(Nc1nc2cccc(Cl)c2[nH]1)c1ccccc1 [Compound 1a]
efficacy at the A2AAR in cAMP accumulation assay (human A2A receptors): antagonists | better A2AAR binding affinity than compound 1 [1]: 27 fold

COc1cccc2nc(NC(=O)c3ccccc3)[nH]c12 [Compound 1b]
better A2AAR binding affinity than compound 1 [1]: 5 fold

COc1cccc(COC(=O)c2nn(-c3ccccc3)nc2N)c1 [Compound 3]
efficacy at the A2AAR in cAMP accumulation assay (human A2A receptors): antagonists

Cc1ccc(COC(=O)c2nn(-c3ccccc3)nc2N)cc1 [Compound 3a]
change in MAO-B IC50 values in the presence of detergent (human recombinant MAO-B): no significant changes

Nc1nn(-c2ccccc2)nc1C(=O)O [Compound 3j]
activity at the A2AAR (in words) [1]: inactive

COc1cccc(CO)c1 [Compound 3k]
activity at the A2AAR (in words) [1]: inactive

NCCc1cc(O)c(O)cc1O [Compound 6-OHDA, 6-hydroxydopamine]
reduction in cell viability [2]: 37 ± 1.3%

From publication PMC6716773 (Journal of Medicinal Chemistry, 2018)
